Patent US20260062422A1 (Halda Therapeutics OpCo, Inc., priority 2022, published 2026)

What was measured:
T47D cells = test: Cellular growth inhibition assay for T47D cells, CellTiter-Glo; format: cell-based, human; settings: 72 hours treatment, CellTiter-Glo 2.0 cell viability
Outline: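 Growth inhibition as GI50, fitted with four parameters to CellTiter-Glo luminescence after 72 h of compound exposure (0.5% DMSO). Cells were T47D, grown in insulin-supplemented (0.2 units/mL) DMEM with 10% FBS and treated one day post-seeding.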

VCaP cells = test: Cellular growth inhibition assay for VCaP cells, CellTiter-Glo; format: cell-based, human; settings: 72 hours treatment, CellTiter-Glo 2.0
Outline: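 GI50 values come from four-parameter curve fits of luminescence data normalized to a zero baseline. Compound, in medium with 0.5% DMSO, was added one day after plating and left for 72 h before CellTiter-Glo 2.0 addition.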

[1] = tested on: T-Rex 293 cell line SC3 cells having increased expression of androgen receptor protein due to exposure to doxycycline; test: Cellular growth inhibition, T-Rex 293 SC3 cells with doxycycline (androgen receptor induced), CellTiter-Glo; format: cell-based; settings: T-Rex 293 SC3 cells with 10 ng/mL doxycycline (increased androgen receptor expression)
Outline: (§1)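 With DMSO (0.5%) vehicle as negative control, compounds treated SC3 cells for 72 h in medium containing charcoal-dextran FBS ± doxycycline. This T-Rex 293 clone expresses transfected wild-type AR on induction. Readout: CellTiter-Glo 2.0; GI50 by nonlinear regression.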

[2] = tested on: T-Rex 293 cell line SC3 cells lacking increased expression of androgen receptor protein; test: Cellular growth inhibition, T-Rex 293 SC3 cells without doxycycline, CellTiter-Glo; format: cell-based; settings: T-Rex 293 SC3 cells not exposed to doxycycline, CellTiter-Glo 2.0
Outline: as §1

SMILES	GI50 (T47D cells; Homo sapiens, T47D, 72 h)	GI50 (VCaP cells; Homo sapiens, VCaP, 72 h)	GI50 ([1]; 72 h)	GI50 ([2]; 72 h)	GI50 (T47D cells)	GI50 (VCaP cells)	GI50 ([1]; 72 hours)	GI50 ([2]; 72 hours)
Cc1sc2c(c1C)C(c1ccc(CCCN(C)C(=O)c3ncc(C(=O)N[C@H]4C(C)(C)[C@H](Oc5ccc(C#N)c(Cl)c5)C4(C)C)cn3)cc1)=N[C@@H](Cc1ncco1)c1nnc(C)n1-2 [Compound I-362]	500 to 1500 nM	< 500 nM	< 500 nM	> 3000 nM	–	–	–	–
Cc1sc2c(c1C)C(c1ccc(C(=O)N3CCC[C@H](C(=O)c4ncc(C(=O)N[C@H]5C(C)(C)[C@H](Oc6ccc(C#N)c(Cl)c6)C5(C)C)cn4)C3)cc1)=N[C@@H](Cc1ncco1)c1nnc(C)n1-2 [Compound I-345]	1500 to 3000 nM	> 3000 nM	> 3000 nM	> 3000 nM	–	–	–	–
Cc1sc2c(c1C)C(c1ccc(C(=O)N3CC[C@@]4(CCCN(c5ncc(C(=O)N[C@H]6C(C)(C)[C@H](Oc7ccc(C#N)c(Cl)c7)C6(C)C)cn5)C4)C3)cc1)=N[C@H](Cc1ncco1)c1nnc(C)n1-2 [Compound I-257]	1500 to 3000 nM	> 3000 nM	< 500 nM	> 3000 nM	–	–	–	–
Cc1sc2c(c1C)C(c1ccc(N3CCC(CNC(=O)c4ncc(C(=O)N[C@H]5C(C)(C)[C@H](Oc6ccc(C#N)c(Cl)c6)C5(C)C)cn4)CC3)cc1)=N[C@H](Cc1ncco1)c1nnc(C)n1-2 [Compound I-291]	500 to 1500 nM	< 500 nM	< 500 nM	500 to 1500 nM	–	–	–	–
Cc1sc2c(c1C)C(c1ccc(C3CC3C3CC4(CCN(c5ncc(C(=O)N[C@H]6C(C)(C)[C@H](Oc7ccc(C#N)c(Cl)c7)C6(C)C)cn5)CC4)C3)cc1)=N[C@@H](Cc1ncco1)c1nnc(C)n1-2 (stereo partly shown) [Compound I-238]	–	–	–	–	< 500 nM	< 500 nM	< 500 nM	> 3000 nM
Cc1sc2c(c1C)C(c1ccc(N3CC(OC4CCN(c5ncc(C(=O)N[C@H]6C(C)(C)[C@H](Oc7ccc(C#N)c(Cl)c7)C6(C)C)cn5)CC4)C3)cc1)=N[C@@H](Cc1ncco1)c1nnc(C)n1-2 [Compound I-206, N-[3-(3-chloro-4-cyano-phenoxy)-2,2,4,4-tetramethyl-cyclobutyl]-2-[4-[1-[4-[(9S)-4,5,13-trimethyl-9-(oxazol-2-ylmethyl)-3-thia-1,8,11,12-tetrazatricyclo[8.3.0.02,6]trideca-2(6),4,7,10,12-pentaen-7-yl]phenyl]azetidin-3-yl]oxy-1-piperidyl]pyrimidine-5-carboxamide]	< 500 nM	< 500 nM	< 500 nM	< 500 nM	–	–	–	–
Cc1sc2c(c1C)C(c1ccc(N3CC4(CCN(c5ncc(C(=O)N[C@H]6C(C)(C)[C@H](Oc7ccc(C#N)c(Cl)c7)C6(C)C)cn5)CC4)C3)cc1)=NC(Cc1ncco1)c1nnc(C)n1-2 (stereo partly shown) [Compound I-207]	500 to 1500 nM	500 to 1500 nM	–	–	–	–	< 500 nM	> 3000 nM
Cc1sc2c(c1C)C(c1ccc(OC3CC(CC4CCN(c5ncc(C(=O)N[C@H]6C(C)(C)[C@H](Oc7ccc(C#N)c(Cl)c7)C6(C)C)cn5)CC4)C3)cc1)=N[C@@H](Cc1ncco1)c1nnc(C)n1-2 (stereo partly shown) [Compound I-189]	< 500 nM	< 500 nM	< 500 nM	> 3000 nM	–	–	–	–
Cc1sc2c(c1C)C(c1ccc(N3CCC4(CC3)CC(Cc3ncc(C(=O)N[C@H]5C(C)(C)[C@H](Oc6ccc(C#N)c(Cl)c6)C5(C)C)cn3)C4)cc1)=NC(Cc1ncco1)c1nnc(C)n1-2 (stereo partly shown) [Compound I-459]	–	–	< 500 nM	–	1500 to 3000 nM	> 3000 nM	–	> 3000 nM
Cc1sc2c(c1C)C(c1ccc(N3CCN(C(=O)c4ncc(C(=O)N[C@H]5C(C)(C)[C@H](Oc6ccc(C#N)c(Cl)c6)C5(C)C)cn4)CC3)cc1)=N[C@@H](Cc1ncco1)c1nnc(C)n1-2 [Compound I-340]	1500 to 3000 nM	> 3000 nM	> 3000 nM	> 3000 nM	–	–	–	–
Cc1sc2c(c1C)C(c1ccc([C@@H]3CC[C@@]4(C3)CN(c3ncc(C(=O)N[C@H]5C(C)(C)[C@H](Oc6ccc(C#N)c(Cl)c6)C5(C)C)cn3)CCO4)cc1)=N[C@@H](Cc1ncco1)c1nnc(C)n1-2 [Compound I-406]	< 500 nM	< 500 nM	< 500 nM	> 3000 nM	–	–	–	–
Cc1sc2c(c1C)C(c1ccc(C(C)(C)N3CC4(CCCN(c5ncc(C(=O)N[C@H]6C(C)(C)[C@H](Oc7ccc(C#N)c(Cl)c7)C6(C)C)cn5)C4)C3)cc1)=N[C@@H](C)c1nnc(C)n1-2 [Compound I-464]	> 3000 nM	< 500 nM	< 500 nM	> 3000 nM	–	–	–	–
Cc1sc2c(c1C)C(c1ccc(N3CCN(C4CCN(c5ncc(C(=O)N[C@H]6C(C)(C)[C@H](Oc7ccc(C#N)c(Cl)c7)C6(C)C)cn5)CC4)CC3)cc1)=NC(Cc1ncco1)c1nnc(C)n1-2 (stereo partly shown) [Compound I-651]	< 500 nM	< 500 nM	< 500 nM	< 500 nM	–	–	–	–
CCNC(=O)C[C@@H]1N=C(c2ccc(N(C)CCC3CCN(c4ncc(C(=O)N[C@H]5C(C)(C)[C@H](Oc6ccc(C#N)c(Cl)c6)C5(C)C)cn4)CC3)cc2)c2c(sc(C)c2C)-n2c(C)nnc21 [Compound I-110]	< 500 nM	< 500 nM	< 500 nM	< 500 nM	–	–	–	–
Cc1sc2c(c1C)C(c1ccc(N3CCC4(C3)CN(c3cnc(C(=O)N[C@H]5C(C)(C)[C@H](Oc6ccc(C#N)c(Cl)c6)C5(C)C)cn3)C4)cc1)=N[C@@H](C)c1nnc(C)n1-2 [Compound I-578]	< 500 nM	< 500 nM	> 3000 nM	> 3000 nM	–	–	–	–
Cc1sc2c(c1C)C(c1ccc(C(=O)N3CC[C@@]4(CCCN(c5ncc(C(=O)N[C@H]6C(C)(C)[C@H](Oc7ccc(C#N)c(Cl)c7)C6(C)C)cn5)C4)C3)cc1)=N[C@@H](Cc1ncco1)c1nnc(C)n1-2 [Compound I-256]	> 3000 nM	> 3000 nM	> 3000 nM	> 3000 nM	–	–	–	–
Cc1sc2c(c1C)C(c1ccc(O[C@H]3CCC4(C3)CN(c3ncc(C(=O)N[C@H]5C(C)(C)[C@H](Oc6ccc(C#N)c(Cl)c6)C5(C)C)cn3)C4)cc1)=N[C@@H](Cc1ncco1)c1nnc(C)n1-2 [Compound I-180]	< 500 nM	< 500 nM	< 500 nM	< 500 nM	–	–	–	–
Cc1sc2c(c1C)C(c1ccc(C3CC(C4CCN(c5ncc(C(=O)N[C@H]6C(C)(C)[C@H](Oc7ccc(C#N)c(Cl)c7)C6(C)C)cn5)CC4)C3)cc1)=NC(C)c1nnc(C)n1-2 (stereo partly shown) [Compound I-468]	–	–	–	–	< 500 nM	< 500 nM	< 500 nM	> 3000 nM
Cc1sc2c(c1C)C(c1ccc(N3CC(C4CCN(c5ncc(C(=O)N[C@H]6C(C)(C)[C@H](Oc7ccc(C#N)c(Cl)c7)C6(C)C)cn5)C4)C3)cc1)=NC1(CC1)c1nnc(C)n1-2 (stereo partly shown) [Compound I-604]	500 to 1500 nM	< 500 nM	< 500 nM	< 500 nM	–	–	–	–
Cc1sc2c(c1C)C(c1ccc(N3CCC[C@H](C(=O)N4CCC[C@H](c5ncc(C(=O)N[C@H]6C(C)(C)[C@H](Oc7ccc(C#N)c(Cl)c7)C6(C)C)cn5)C4)C3)cc1)=N[C@H](Cc1ncco1)c1nnc(C)n1-2 [Compound I-338]	> 3000 nM	> 3000 nM	> 3000 nM	> 3000 nM	–	–	–	–
Cc1sc2c(c1C)C(c1ccc(CNC(=O)CN(C)c3ncc(C(=O)N[C@H]4C(C)(C)[C@H](Oc5ccc(C#N)c(Cl)c5)C4(C)C)cn3)cc1)=N[C@@H](Cc1ncco1)c1nnc(C)n1-2 [Compound I-266]	500 to 1500 nM	< 500 nM	< 500 nM	> 3000 nM	–	–	–	–
COCC[C@@H]1N=C(c2ccc(OC3CC4(CCN(c5ncc(C(=O)N[C@H]6C(C)(C)[C@H](Oc7ccc(C#N)c(Cl)c7)C6(C)C)cn5)CC4)C3)cc2)c2c(sc(C)c2C)-n2c(C)nnc21 [Compound I-566]	> 3000 nM	< 500 nM	< 500 nM	> 3000 nM	–	–	–	–
